What was measured:
[1] = test system: Rabbit Cornea Homogenate; assay: Rabbit Cornea Homogenate Stability Assay (rabbit cornea esterase assay); assay type: in vitro ADME; conditions: 37° C.
Method: Determining Rabbit Cornea Homogenate stability of the test compounds was performed using HPLC-MS. The assay was performed at two concentrations of Rabbit Cornea Homogenate (0.15 mg/ml and 0.45 mg/ml total protein) so that any hydrolysis observed could be assigned as esterase dependent or not.
Five rabbit corneas (e.g. New Zealand Whites) of approx. 50 mg each were sliced and scraped with a scalpel and tweezers until reduced to small (1-3 mm), thin pieces. These were transferred into a tared vial and accurately weighed, then diluted with 10 volumes aqueous PBS pH7.4
Sample was cooled intermittently on ice and shear homogenized for 3 minutes, then centrifuged for 3 min at 3000 rpm. The supernatant was pipetted off into a vial, and total protein concentration determined at 280 nm. Sample was stored at −78° C.
10 mM Compound stocks were diluted to 100 μM in a 96 deep-well plate: 10 μl of 10 mM Compound stock was added to 990 μl 50 mM HEPES, pH7.5 buffer.
Compounds were further diluted to 10 μM: 100 μl of 100 μM compound was added to 900 μl 50 mM HEPES, pH7.5 buffer.
Esterase homogenate was diluted to 300 ng/μl and 900 ng/μl
A heater shaker was set to 37° C. Into a suitable 96 well plate (Run Plate), 75 μl of 300 or 900 ng/μl esterase homogenate was pipetted into each of the required wells (2 min, 5 min, 10 min, 20 min and 45 min). The plate was sealed and then warmed at 37° C. for 5 min. Another 96 well PCR plate is put on ice (Kill Plate). To this was added 100 μl of MeCN to each well, labelled 0 min, 2 min, 5 min, 10 min, 20 min and 45 min. The plate was covered to minimise evaporation. For the T=0 sample only, to the 100 μl cold MeCN stop solution was added 50 μl of 300 or 900 ng/μl esterase homogenate followed by 50 μl of 10 μM compound solution For the remaining time points, 75 μl of 10 μM compound solution was added to the Run Plate starting from T=45 min row and ending with T=2 min row. At the appropriate time point, 100 μl of the assay mixture was added to the matching kill plate well containing 100 μl of cold MeCN. Samples were analysed as soon as practicable by LCMS (Waters Xevo TQ-S or Micromass Ultima).
Parent conjugate and parent concentrations were determined against appropriate standard response curves and the half-life (T1/2) of the parent conjugate was calculated using the peak area of the parent conjugate at each time point in the linear region of the log—linear plot.

[2] = Aqueous Hydrolysis Stability Assay; assay type: physicochemical; conditions: at 192 min; 100 μM in 50 mM HEPES pH 7.5 buffer or 1:1 Acetonitrile:Water, room temperature
Method: Determination of aqueous stability of the test compounds was performed using HPLC-MS. A test compound 10 mM stock solution was prepared in DMSO. 10 μl of the DMSO stock solution was dissolved in 990 μl of 50 mM HEPES pH 7.5 buffer or 1:1 (v/v) of Acetonitrile:Water to make a 100 μM solution. Final DMSO concentration was 1%. The solution was kept at room temperature and injected without delay into the LCMS (Waters Xevo TQ-S or Micromass Ultima). Additional injections were performed at appropriate time points.
Half-life (T1/2) of the parent conjugate was calculated using the peak area of the parent conjugate at each time point in the linear region of the log—linear plot.

[3] = Cornea Homogenate Conc 0.15 mg/mL
[4] = Cornea Homogenate Conc 0.45 mg/mL

Q: With `Cc1ccccc1OCC(=O)N[C@@H](CC(C)C)C(=O)N[C@@H](Cc1ccc(OC(=O)N2CCC(C(N)=O)CC2)cc1)C(=O)OC(C)OC(=O)OC(C)C` (stereo partly drawn) [Comp 2, 4-((2S)-3-(1-((isopropoxycarbonyl)oxy)ethoxy)-2-((S)-4-methyl-2-(2-(o-tolyloxy)acetamido)pentan-amido)-3-oxopropyl)phenyl 4-carbamoylpiperidine-1-carboxylate] as the compound, how does the “API Formation rate” value [1, 3] read?
A: b (API formation rate 0.5-1.0%/min)

Q: What about the “Esterase % Lifitegrast formation at 45 min” value [1, 3] of the same compound?
A: B (percent API formation 25% to 50%)

Q: What about the “API Formation rate” value [1, 4] of the same compound?
A: c (API formation rate 1.0-1.5%/min)

Q: And the “Esterase % Lifitegrast formation at 45 min” value [1, 4]?
A: C (percent API formation 51% to 75%)

Q: What about the “Hydrolytic % Lifitegrast formation at [time]” value [2] of the same compound?
A: A [192 min] (percent active pharmaceutical ingredient (API) formation<1.5%)

Reference: US10875845B2, “Compounds and methods for the treatment of ocular disorders” (Azura Ophthalmics Ltd., priority 2019, dated 2020)
